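Values below derive from 48-hour exposures of cells grown in 96-well plates, with endpoints linearly interpolated between the two concentrations bracketing the appropriate inhibition level. At the GI50, growth is halved. TGI marks complete inhibition of growth.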
Tests used:
Experiment in all cases: NCI tumour cell line growth inhibition, 48 h
MALME-3M melanoma = system: MALME-3M melanoma
NCI/ADR-RES ovarian = system: NCI/ADR-RES ovarian
OVCAR-3 ovarian = system: OVCAR-3 ovarian
OVCAR-8 ovarian = system: OVCAR-8 ovarian
PC-3 prostate = system: PC-3 prostate
RPMI-8226 leukemia = system: RPMI-8226 leukemia
TK-10 renal = system: TK-10 renal

COc1cc(NS(=O)(=O)c2ccc(-c3cnc(C4CC4)o3)cc2)ccc1F
GI50 (MALME-3M melanoma): 0.56 µM | TGI (MALME-3M melanoma): 33.9 µM | GI50 (NCI/ADR-RES ovarian): 0.339 µM | TGI (NCI/ADR-RES ovarian): 10.2 µM | GI50 (OVCAR-3 ovarian): 0.437 µM | TGI (OVCAR-3 ovarian): 16 µM | GI50 (OVCAR-8 ovarian): 0.745 µM | TGI (OVCAR-8 ovarian): 56.5 µM | GI50 (PC-3 prostate): 0.329 µM | TGI (PC-3 prostate): 17 µM | GI50 (RPMI-8226 leukemia): 0.457 µM | TGI (RPMI-8226 leukemia): 39.5 µM | GI50 (TK-10 renal): 7.88 µM | TGI (TK-10 renal): 53.9 µM

C=C1C(=O)O[C@H]2[C@H]1CC/C(COC(=O)c1cc3ccccc3s1)=C\CC[C@@]1(C)O[C@@H]21
GI50 (MALME-3M melanoma): 1.82 µM | TGI (MALME-3M melanoma): 3.75 µM | GI50 (NCI/ADR-RES ovarian): 2.14 µM | TGI (NCI/ADR-RES ovarian): 6.63 µM | GI50 (OVCAR-3 ovarian): 0.446 µM | TGI (OVCAR-3 ovarian): 1.66 µM | GI50 (OVCAR-8 ovarian): 1.8 µM | TGI (OVCAR-8 ovarian): 5.14 µM | GI50 (PC-3 prostate): 1.83 µM | TGI (PC-3 prostate): 3.59 µM | GI50 (RPMI-8226 leukemia): 0.566 µM | TGI (RPMI-8226 leukemia): 4.79 µM | GI50 (TK-10 renal): 1.55 µM | TGI (TK-10 renal): 2.93 µM

COc1ccc(OC)c(C(=O)c2oc3ccc(Br)cc3c2N)c1
GI50 (MALME-3M melanoma): 0.339 µM | TGI (MALME-3M melanoma): 46.8 µM | GI50 (NCI/ADR-RES ovarian): 0.341 µM | TGI (NCI/ADR-RES ovarian): > 77.7 µM | GI50 (OVCAR-3 ovarian): 0.347 µM | TGI (OVCAR-3 ovarian): 3.28 µM | GI50 (OVCAR-8 ovarian): 0.576 µM | TGI (OVCAR-8 ovarian): 97.9 µM | GI50 (PC-3 prostate): 0.58 µM | TGI (PC-3 prostate): > 51 µM | GI50 (RPMI-8226 leukemia): 0.37 µM | TGI (RPMI-8226 leukemia): 6.51 µM | GI50 (TK-10 renal): 1.74 µM | TGI (TK-10 renal): 87.7 µM

COc1ccccc1Cn1cc2c(c1-c1ccccc1)CCc1cnoc1-2
GI50 (MALME-3M melanoma): 1.39 µM | TGI (MALME-3M melanoma): > 100 µM | GI50 (NCI/ADR-RES ovarian): 0.848 µM | TGI (NCI/ADR-RES ovarian): 4.47 µM | GI50 (OVCAR-3 ovarian): 1.23 µM | TGI (OVCAR-3 ovarian): 4.32 µM | GI50 (OVCAR-8 ovarian): 6.22 µM | TGI (OVCAR-8 ovarian): > 100 µM | GI50 (PC-3 prostate): 3.75 µM | TGI (PC-3 prostate): > 100 µM | GI50 (RPMI-8226 leukemia): 3.78 µM | TGI (RPMI-8226 leukemia): > 100 µM | GI50 (TK-10 renal): 4.32 µM | TGI (TK-10 renal): > 100 µM

COc1cc2c3c(n(CCCCOC(=O)C(Cl)(Cl)Cl)c(=O)c2cc1OC)-c1cc2c(cc1C3=O)OCO2
GI50 (MALME-3M melanoma): > 100 µM | TGI (MALME-3M melanoma): > 100 µM | GI50 (NCI/ADR-RES ovarian): 82.7 µM | TGI (NCI/ADR-RES ovarian): > 100 µM | GI50 (OVCAR-3 ovarian): > 100 µM | TGI (OVCAR-3 ovarian): > 100 µM | GI50 (OVCAR-8 ovarian): 27.9 µM | TGI (OVCAR-8 ovarian): > 100 µM | GI50 (PC-3 prostate): > 100 µM | TGI (PC-3 prostate): > 100 µM | GI50 (RPMI-8226 leukemia): > 100 µM | TGI (RPMI-8226 leukemia): > 100 µM | GI50 (TK-10 renal): > 100 µM | TGI (TK-10 renal): > 100 µM

CNc1nc(N)c(N=O)c(Nc2ccc(Br)cc2)n1
TGI (MALME-3M melanoma): > 100 µM | TGI (NCI/ADR-RES ovarian): > 100 µM | TGI (OVCAR-3 ovarian): > 100 µM | TGI (OVCAR-8 ovarian): > 100 µM | TGI (PC-3 prostate): > 100 µM | TGI (RPMI-8226 leukemia): > 100 µM | TGI (TK-10 renal): > 100 µM

C=C(C)C1CCC2(C(=O)O)CCC3(C)C(CCC4C5(C)CCC(OC(=O)NCc6ccccc6)C(C)(C)C5CCC43C)C12 (stereo not given)
GI50 (MALME-3M melanoma): 5.5 µM | TGI (MALME-3M melanoma): 54.1 µM | GI50 (NCI/ADR-RES ovarian): 3.82 µM | TGI (NCI/ADR-RES ovarian): > 100 µM | GI50 (OVCAR-3 ovarian): 2.04 µM | TGI (OVCAR-3 ovarian): 13.9 µM | GI50 (OVCAR-8 ovarian): 7.29 µM | TGI (OVCAR-8 ovarian): > 100 µM | GI50 (PC-3 prostate): 1.2 µM | TGI (PC-3 prostate): 95.7 µM | GI50 (RPMI-8226 leukemia): 0.757 µM | TGI (RPMI-8226 leukemia): 6.49 µM | GI50 (TK-10 renal): 3.76 µM | TGI (TK-10 renal): 58.4 µM

CCN(CC)CCCC(C)Nc1cnc(C(=O)Nc2cccc3ccc(OC)nc23)cn1 (stereo not given)
GI50 (MALME-3M melanoma): 1.75 µM | TGI (MALME-3M melanoma): 3.22 µM | GI50 (NCI/ADR-RES ovarian): 2.62 µM | TGI (NCI/ADR-RES ovarian): 7.95 µM | GI50 (OVCAR-3 ovarian): 2.24 µM | TGI (OVCAR-3 ovarian): 5.24 µM | GI50 (OVCAR-8 ovarian): 2.74 µM | TGI (OVCAR-8 ovarian): 8.41 µM | GI50 (PC-3 prostate): 2.83 µM | TGI (PC-3 prostate): 10.5 µM | GI50 (RPMI-8226 leukemia): 2.45 µM | TGI (RPMI-8226 leukemia): 6.15 µM | GI50 (TK-10 renal): 15.4 µM | TGI (TK-10 renal): 29.7 µM

Reference: PubChem BioAssay (NCI)
